Measurements: PMC12567041 (Pharmaceutics, 2025)
Values joined by “and” are separate entries in the source; they are usually repeats but may differ in a detail not shown here. Identical values can stand only once. “Also recorded” adds a separate entry of the source.

Tests used:
[1] = Two-stage dissolution FaSSGF to FaSSIF; format: physicochemical; details: doses up to 200 mg
Procedure: […]. […] In vitro two-stage dissolution experiments, during which the drug/formulation is pre-exposed to fasted-state simulated gastric fluid (FaSSGF) for a 30 min period, at the end of which, properly concentrated fasted-state simulated intestinal fluid (FaSSIF) is immediately added to FaSSGF [13], were performed to assess the risk of precipitation in vitro. […] Considering the high passive permeability, this indicates low risk for compromised absorption in vivo, further supporting the assumption of the complete absorption of asciminib in humans in the fasted state.

[2] = Biopharmaceutics classification; format: physicochemical
[3] = Fraction unbound in microsomal incubation (fumic); format: in vitro ADME; details: for fraction unbound: human, microsomes (microsomal incubation)
[4] = test system: CYP3A4/5; experiment: Time-dependent inhibition of CYP3A4/5; format: in vitro ADME; details: up to 50 μM; in-house data
[5] = Relative contributions of clearance pathways (fm/fe/ft); set-up: species or system human
Description: However, as discussed below, the in vivo contribution of UGTs was later adjusted downward to account for BCRP-mediated biliary excretion.
The contributions of CYP enzymes and renal elimination remained unchanged. […] A summary of the Simcyp output for elimination pathways, with and without BCRP, is provided in Supplementary Table S1.

[6] = Clinical DDI studies, asciminib as victim (observed); format: in vivo, human; details: asciminib 200 mg single dose + phenytoin 100 mg TID
[7] = Compartmental concentrations for static DDI risk assessment; set-up: species or system human
[8] = cited from earlier work
[9] = test system: CYP3A4
[10] = in vitro, mean (SD); cited from earlier work
[11] = test system: CYP2J2; details: Km*fumic; read-out: Km,u (CYP2J2), mean (SD); cited from earlier work
[12] = HLMs; cited from earlier work
[13] = cited from earlier work; remark: listed apart in the source
[14] = 40 mg dose; cited from earlier work
[15] = with strong P-gp inhibitor quinidine; cited from earlier work
[16] = cited from earlier work; remark: listed apart in the source
[17] = cited from earlier work; remark: listed apart in the source
[18] = in vitro; details: MDCK
[19] = test system: CYP3A4; experiment: Enzyme kinetics, recombinant CYP3A4; details: back-calculated, aim for fm = 0.351
Description: (§1) Using the Simcyp retrograde model, initial estimates of intrinsic clearance (CLint,u) were derived based on fractional contributions from recombinant human CYP and UGT enzymes, as well as additional intrinsic clearance in HLMs attributed to hydrolysis. Enzyme kinetic parameters (Km and Vmax) were used to establish the model, with Vmax values back-calculated as the product of CLint,u and Km to match the observed fm values to the total clearance.

[20] = test system: CYP2J2; experiment: Enzyme kinetics, recombinant CYP2J2; details: back-calculated, aim for fm = 0.0076
Description: as §1

[21] = test system: MDCK-LE cell line; experiment: Apparent passive permeability in MDCK-LE cells; details: from MDCK-LE permeability
[22] = Preclinical volume of distribution across animal species; details: in vivo
Description: Due to the inclusion of hepatic efflux transporters in Simcyp, the whole-body PBPK model was employed. […] However, the passive diffusion clearance (CLPD) in the PerL increases the Vss by moving the drug into the liver. A top-down approach was applied to adjust the Kp scalar to visually best fit the model to the distribution phase of the observed clinical PK data.

[23] = Table S1, sum of hepatic and renal UGT contributions
[24] = assuming no active biliary secretion

O=C(Nc1ccc(OC(F)(F)Cl)cc1)c1cnc(N2CC[C@@H](O)C2)c(-c2ccn[nH]2)c1 [asciminib]
duration of sustained supersaturation [1]: at least 1 h
precipitation in vitro [1]: < 20%
biopharmaceutics classification system (BCS) class [2]: class II
fumic ([3]; 0.810 mg of protein/mL (CYP3A4 incubation)): 0.160
fumic ([3]; 1.40 mg of protein/mL (CYP2J2 incubation)): 0.0925
fumic ([3]; 1.5 mg of protein/mL (UGT incubation)): 0.0811
fumic ([3]; 1.58 mg of protein/mL (CYP2C8 incubation)): 0.0829
fumic ([3]; 1.86 mg of protein/mL (CYP2D6 incubation)): 0.0680
fraction unbound ([3]; 0.025 mg/mL of protein): 0.871
fraction unbound ([3]; 0.05 mg/mL of protein): 0.75
fraction unbound ([3]; 0.5 mg/mL of protein): 0.208
time-dependent inhibition (TDI) of CYP3A4/5 [4]: no apparent TDI; also recorded: no in vitro apparent time-dependent inhibition
CYP2C8: aim for fm/fe/ft, Simcyp output (without BCRP) ([5]; Table S1): 0.007
CYP2C8: aim for fm/fe/ft, final fm (including hepatic BCRP) ([5]; Table S1): 0.005
CYP2C8: fm/fe based on hADME ([5]; Table S1): 0.005
CYP2D6: aim for fm/fe/ft, Simcyp output (without BCRP) ([5]; Table S1): 0.003
CYP2D6: aim for fm/fe/ft, final fm (including hepatic BCRP) ([5]; Table S1): 0.002
CYP2D6: fm/fe based on hADME ([5]; Table S1): 0.002
CYP2J2: aim for fm/fe/ft, Simcyp output (without BCRP) ([5]; Table S1): 0.011
CYP2J2: aim for fm/fe/ft, final fm (including hepatic BCRP) ([5]; Table S1): 0.0076
CYP2J2: fm/fe based on hADME ([5]; Table S1): 0.0076
CYP3A4: aim for fm/fe/ft, Simcyp output (without BCRP) ([5]; Table S1): 0.509
CYP3A4: aim for fm/fe/ft, final fm (including hepatic BCRP) ([5]; Table S1): 0.351
CYP3A4: fm/fe based on hADME ([5]; Table S1): 0.351
Hepatic BCRP: aim for fm/fe/ft, final fm (including hepatic BCRP) ([5]; Table S1): 0.311
Hydrolysis: aim for fm/fe/ft, Simcyp output (without BCRP) ([5]; Table S1): 0.010
Hydrolysis: aim for fm/fe/ft, final fm (including hepatic BCRP) ([5]; Table S1): 0.007
Hydrolysis: fm/fe based on hADME ([5]; Table S1): 0.007
Renal excretion: aim for fm/fe/ft, Simcyp output (without BCRP) ([5]; Table S1): 0.035
Renal excretion: aim for fm/fe/ft, final fm (including hepatic BCRP) ([5]; Table S1): 0.044
Renal excretion: fm/fe based on hADME ([5]; Table S1): 0.044
UGT1A3: aim for fm/fe/ft, Simcyp output (without BCRP) ([5]; Table S1): 0.048
UGT1A3: aim for fm/fe/ft, final fm (including hepatic BCRP) ([5]; Table S1): 0.033
UGT1A3: fm/fe based on hADME ([5]; Table S1): 0.0705
UGT1A4: aim for fm/fe/ft, Simcyp output (without BCRP) ([5]; Table S1): 0.048
UGT1A4: aim for fm/fe/ft, final fm (including hepatic BCRP) ([5]; Table S1): 0.033
UGT2B7: aim for fm/fe/ft, Simcyp output (without BCRP) ([5]; Table S1): 0.190
UGT2B7: aim for fm/fe/ft, final fm (including hepatic BCRP) ([5]; Table S1): 0.131
UGT2B17: aim for fm/fe/ft, Simcyp output (without BCRP) ([5]; Table S1): 0.110
UGT2B17: aim for fm/fe/ft, final fm (including hepatic BCRP) ([5]; Table S1): 0.076
UGT2B17: fm/fe based on hADME ([5]; Table S1): 0.163
UGT1A4: fm/fe based on hADME [5, 23]: 0.0705
UGT2B7: fm/fe based on hADME [5, 23]: 0.279
revised total UGT contribution to total clearance ([5]; after subtracting BCRP contribution): approximately 27.3%
CYP-mediated contribution to total clearance [5, 24]: 36.6%
UGT-mediated contribution to total clearance [5, 24]: 58.3%
reduction of AUCinf, observed [6]: 34%
reduction of Cmax, observed [6]: 22%
Cgut (maximal gut concentration) ([7]; 40 mg BID): 356 µM
Cgut,ent (maximal enterocyte concentration) ([7]; 40 mg BID): 10.5 µM
Ch,in,tot (total maximal hepatic inlet plasma concentration) ([7]; 40 mg BID): 4.47 µM
Ch,in,u (unbound maximal hepatic inlet plasma concentration at the steady state) ([7]; 40 mg BID): 0.121 µM
Cgut (maximal gut concentration) ([7]; 80 mg QD): 711 µM
Cgut,ent (maximal enterocyte concentration) ([7]; 80 mg QD): 20.9 µM
Ch,in,tot (total maximal hepatic inlet plasma concentration) ([7]; 80 mg QD): 9.38 µM
Ch,in,u (unbound maximal hepatic inlet plasma concentration at the steady state) ([7]; 80 mg QD): 0.253 µM
Cgut (maximal gut concentration) ([7]; 200 mg BID): 1778 µM
Cgut,ent (maximal enterocyte concentration) ([7]; 200 mg BID): 52.4 µM
Ch,in,tot (total maximal hepatic inlet plasma concentration) ([7]; 200 mg BID): 26.1 µM
Ch,in,u (unbound maximal hepatic inlet plasma concentration at the steady state) ([7]; 200 mg BID): 0.704 µM
estimated gastrointestinal luminal concentration ([7]; lowest clinical dose 20 mg): ~ 178 μM
Log P: Octanol–water partition/logD pH 6.8 [8]: 3.9
Emax (CYP3A4), non-calibrated [9]: Non-calibrated Emax = 4.4 In-house data fold
Indmax (=Emax + 1) (CYP3A4), in vitro measured [9]: 5.4 fold
fup (fraction unbound in plasma) [10]: 0.027 (0.011)
Km [11]: 0.694 µM
share of metabolism by glucuronidation [12]: ~ 65%
share of metabolism by oxidative metabolism [12]: ~ 35%
unchanged asciminib in urine [13]: 4.4 % of the administered radioactive dose
parent asciminib in feces due to back-conversion of M30.5 ([13]; estimated from late-time-point feces profile): 24%
CLr (renal clearance) ([13]; healthy): 1.8 mL/min/1.73 m^2
unchanged asciminib in cumulative feces ([13]; pooled 0–96 h or 0–168 h, average): 56.7 % of the dose
AUC in cancer patients [14]: 5800 to 6100 ng·h/mL
decrease of asciminib AUC [15]: 13%
decrease of asciminib Cmax [15]: 11%
exposure reduction, high-fat fed [16]: 70%
exposure reduction, low-fat fed [16]: 33%
flux in presence of elevated bile acid concentrations (FeSSIF) [17]: reduced asciminib flux
recovery ([18]; dog): 88%
Papp ([18]; human): 373 ×10⁻⁶ cm/s
Vmax (CYP3A4) [19]: 3.8 pmol/min/pmol of CYP
Vmax (CYP2J2) [20]: 0.355 pmol/min/pmol CYP
predicted fraction absorbed (fa) [21]: 93% and ~ 93%
Vd [22]: 0.5 to 2.2 L/kg
